Laboratory results from ChEMBL document CHEMBL1131842, “Synthesis and estrogen receptor binding affinity of a porphyrin-estradiol conjugate for targeted photodynamic therapy of cancer” (Bioorg Med Chem Lett, 1999).

Biological target: Estrogen receptor (Homo sapiens, UniProt Q92731+P03372)
Experiment: Displacement of [3H]estradiol from estrogen receptor-ligand binding domain
Type: protein assay

C[C@]12CC(CCOC(=O)CCCNC(=O)c3ccc(-c4c5ccc([nH]5)c(-c5ccccc5)c5nc(c(-c6ccccc6)c6nc(c(-c7ccccc7)c7ccc4[nH]7)C=C6)C=C5)cc3)[C@@H]3c4ccc(O)cc4CC[C@H]3[C@@H]1CCC2O (stereo partly specified)
EC50: 0.274 µM
